The values that follow come from patent US10844062B2, “Pyridine derivative inhibiting RAF kinase and vascular endothelial growth factor receptor, method for preparing same, pharmaceutical composition containing same, and use thereof” (SAMJIN PHARMACEUTICAL CO., LTD., priority 2016, dated 2020).

One test relates to LS513 KRAS G12V (colon). Nature of the test: MTT assay. In kind it is cell-based. The following applies: Homo sapiens, LS-513, 72 h, Table 4; 3 days incubation; read-out: MTT assay IC50 KRAS mutant (Colon) LS513 KRAS G12V. In a few lines:
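Cells were seeded at line-dependent density and stabilised overnight at 37 °C, then exposed to compounds for 3 days at 37 °C. MTT was then added for 2 h and the formazan dissolved in DMSO.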
On the technique in general: Tetrazolium dyes change colour on reduction, which living cells bring about.

The target in test [1] is VEGFR-2 tyrosine kinase (KDR) (Homo sapiens (Human), UniProt P35968). Nature of the test: VEGFR-2 tyrosine kinase inhibitory activity (ADP-Glo kinase assay). In kind it is biochemical. To be noted: KDR 50 ng. A general note: ADP-Glo first removes unused ATP, then detects ADP through luciferase.
VEGFR-2 tyrosine kinase (KDR), sequence (P35968 20-1356): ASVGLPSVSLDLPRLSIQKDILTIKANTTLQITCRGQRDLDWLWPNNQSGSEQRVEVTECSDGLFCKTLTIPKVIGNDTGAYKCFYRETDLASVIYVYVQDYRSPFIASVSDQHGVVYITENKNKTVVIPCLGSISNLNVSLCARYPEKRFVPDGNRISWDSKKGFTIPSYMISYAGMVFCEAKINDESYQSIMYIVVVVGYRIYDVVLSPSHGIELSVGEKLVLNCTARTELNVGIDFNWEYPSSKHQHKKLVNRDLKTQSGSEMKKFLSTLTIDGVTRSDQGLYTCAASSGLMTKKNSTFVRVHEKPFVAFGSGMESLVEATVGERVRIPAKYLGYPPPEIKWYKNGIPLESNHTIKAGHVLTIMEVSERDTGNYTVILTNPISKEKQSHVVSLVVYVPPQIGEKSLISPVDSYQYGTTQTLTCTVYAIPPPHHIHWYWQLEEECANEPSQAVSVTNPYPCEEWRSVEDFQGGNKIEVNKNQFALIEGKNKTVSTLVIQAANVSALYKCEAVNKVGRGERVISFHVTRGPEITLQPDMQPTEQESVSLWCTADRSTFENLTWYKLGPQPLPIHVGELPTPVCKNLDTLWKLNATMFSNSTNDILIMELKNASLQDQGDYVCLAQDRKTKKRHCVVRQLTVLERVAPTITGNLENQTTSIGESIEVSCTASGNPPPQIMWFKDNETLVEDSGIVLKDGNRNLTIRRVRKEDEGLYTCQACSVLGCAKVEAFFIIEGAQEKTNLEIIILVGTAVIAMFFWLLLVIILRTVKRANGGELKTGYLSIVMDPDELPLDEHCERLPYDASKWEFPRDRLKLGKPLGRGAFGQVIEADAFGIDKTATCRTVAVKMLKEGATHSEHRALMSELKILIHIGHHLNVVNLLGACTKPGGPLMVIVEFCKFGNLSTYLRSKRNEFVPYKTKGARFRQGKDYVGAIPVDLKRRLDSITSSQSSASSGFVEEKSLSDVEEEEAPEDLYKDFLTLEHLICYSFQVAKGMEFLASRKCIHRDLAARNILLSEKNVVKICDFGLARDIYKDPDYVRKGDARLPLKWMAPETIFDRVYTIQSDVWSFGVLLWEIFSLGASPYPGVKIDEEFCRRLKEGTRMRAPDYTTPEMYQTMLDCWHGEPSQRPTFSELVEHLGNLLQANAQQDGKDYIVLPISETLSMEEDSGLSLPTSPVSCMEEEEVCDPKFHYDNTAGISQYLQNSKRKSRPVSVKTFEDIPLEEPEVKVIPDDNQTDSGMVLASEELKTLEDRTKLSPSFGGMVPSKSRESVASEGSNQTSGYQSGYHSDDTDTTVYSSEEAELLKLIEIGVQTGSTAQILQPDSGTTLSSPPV
Method: The inhibitory activities of the compounds of the present invention against VEGFR-2 tyrosine kinase were analyzed using ADP-Glo™ kinase assay kit commercially available from Promega. In the principle of the analysis, kinase, a substrate and ATP are reacted with one another, and then ADP-Glo™ solution is added thereto. The ATP is removed while leaving the produced ADP, and the remaining ADP is converted to ATP by use of a kinase detection reagent, and the ATP is reacted with a luciferin substrate, and the emitted luminescence is measured.
Reaction time: 30 min (30° C.)/40 min/30 min;

What is called IC50 is the midpoint of a concentration-inhibition curve. As to `Cc1ccc(NC(=O)c2cccc(C(F)(F)F)c2)cc1Nc1ncccc1-c1ncnc2[nH]cnc12` [Example 71, N-4-Methyl-5-[3-(9H-Purin-6-Yl)Pyridin-2-Ylamino)Phenyl-3-Trifluoromethylbenzamide], the IC50 with LS513 KRAS G12V (colon) came out at 565 nM; in test [1] it was 1600 nM.
